From PubChem BioAssay AID256 (DTP/NCI, 2004)
Several values for one entry are separate records, joined by “and”; a condition that tells them apart may be missing. Equal entries are not always repeated. Toxic doses and inconclusive results are not listed.

Tested on: CD2F1 mice, L1210 leukemia ip, survival T/C
Assay: NCI In Vivo Anticancer Drug Screen. Data for tumor model L1210 Leukemia (intraperitoneal) in CD2F1 (CDF1) mice
Settings: higher = longer survival
Method: The antitumor activity of compounds was measured in mice bearing transplantable tumors. Survival or tumor size were measured and the results are expressed as the measurement made in the treated group (T) divided by the measurement made in the vehicle treated control group (C). The tumor model used in this assay is L1210 Leukemia (intraperitoneal) in CD2F1 (CDF1) mice

[1] = endpoint: mean survival time, dose: 50.0 mg/kg/injection, schedule: Q01DX009 (ip), vehicle: saline
[2] = endpoint: mean survival time, dose: 100.0 mg/kg/injection, schedule: Q01DX009 (ip), vehicle: saline with Tween-80
[3] = endpoint: mean survival time, dose: 200.0 mg/kg/injection, schedule: Q01DX009 (ip), vehicle: saline with Tween-80
[4] = endpoint: mean survival time, dose: 400.0 mg/kg/injection, schedule: Q01DX009 (ip), vehicle: saline with Tween-80

For `CCOC(=N)c1cn(C2OC(CO)C(O)C2O)c2nc[nH]c(=O)c12` (stereo not given), the T/C (endpoint: mean survival time, dose: 75.0 mg/kg/injection, schedule: Q01DX001 (ip), vehicle: saline) was 119 % of control.

With `CCOc1ccc(OCC)c(NC(=O)Nc2ccc(OC)cc2)c1` the T/C (endpoint: mean survival time, dose: 100.0 mg/kg/injection, schedule: Q04DX002 (ip), vehicle: saline with Tween-80) was 89 % of control, the T/C (endpoint: mean survival time, dose: 200.0 mg/kg/injection, schedule: Q04DX002 (ip), vehicle: saline with Tween-80) was 93 % of control and the T/C (endpoint: mean survival time, dose: 400.0 mg/kg/injection, schedule: Q04DX002 (ip), vehicle: saline with Tween-80) was 86 % of control.

With `O=C(O)c1c(F)c(F)c(F)c(C(=O)O)c1F` the T/C (endpoint: mean survival time, dose: 12.5 mg/kg/injection, schedule: Q01DX009 (ip), vehicle: saline) was 89 % of control, the T/C (endpoint: mean survival time, dose: 25.0 mg/kg/injection, schedule: Q01DX009 (ip), vehicle: saline) was 95 % of control and the T/C (endpoint: mean survival time, dose: 25.0 mg/kg/injection, schedule: Q04DX003 (ip), vehicle: saline) was 89 % of control. For the same compound, the T/C [1] was 95 % of control, the T/C (endpoint: mean survival time, dose: 50.0 mg/kg/injection, schedule: Q04DX003 (ip), vehicle: saline) was 88 % of control and the T/C (endpoint: mean survival time, dose: 100.0 mg/kg/injection, schedule: Q04DX003 (ip), vehicle: saline with Tween-80) was 93 % of control.

For `CN(C)c1ccc(/C=C/c2ccncc2)cc1`, the T/C [2] was 95 % of control, the T/C [3] was 96 % of control and the T/C [4] was 89 % of control.

`CC1SCCS1` was tested, and the T/C (endpoint: mean survival time, dose: 100.0 mg/kg/injection, schedule: Q01DX001 (ip), vehicle: saline with Tween-80) was 95 % of control, the T/C (endpoint: mean survival time, dose: 200.0 mg/kg/injection, schedule: Q01DX001 (ip), vehicle: saline with Tween-80) was 105 % of control and the T/C (endpoint: mean survival time, dose: 400.0 mg/kg/injection, schedule: Q01DX001 (ip), vehicle: saline with Tween-80) was 100 % of control.

`CN(C)S(=O)(=O)c1ccccc1C(=O)O` was tested, and the T/C (endpoint: mean survival time, dose: 100.0 mg/kg/injection, schedule: Q04DX003 (ip), vehicle: saline sonified) was 100 % of control, the T/C (endpoint: mean survival time, dose: 200.0 mg/kg/injection, schedule: Q04DX003 (ip), vehicle: saline sonified) was 100 % of control and the T/C (endpoint: mean survival time, dose: 400.0 mg/kg/injection, schedule: Q04DX003 (ip), vehicle: saline sonified) was 93 % of control.

In the case of `O=S1(=O)CC(Cl)C(Cl)C1` (stereo not given), the T/C (endpoint: mean survival time, dose: 50.0 mg/kg/injection, schedule: Q04DX003 (ip), vehicle: alcohol) is reported as 105 % of control.

With `C=CCOCC(O)CN1CCCCC1` (stereo not given) the T/C [1] was 116 % of control and the T/C (endpoint: mean survival time, dose: 100.0 mg/kg/injection, schedule: Q01DX009 (ip), vehicle: saline) was 96 % of control.

In the case of `COc1ccc(NC(=O)Nc2cccc(O)c2)c(Cl)c1`, the T/C (endpoint: mean survival time, dose: 50.0 mg/kg/injection, schedule: Q01DX009 (ip), vehicle: Klucel (hydroxypropylcellulose) (HPC)) is reported as 95 % of control, the T/C (endpoint: mean survival time, dose: 100.0 mg/kg/injection, schedule: Q01DX009 (ip), vehicle: Klucel (hydroxypropylcellulose) (HPC)) is reported as 98 % of control and the T/C (endpoint: mean survival time, dose: 100.0 mg/kg/injection, schedule: Q04DX003 (ip), vehicle: Klucel (hydroxypropylcellulose) (HPC)) is reported as 102 % of control. For the same compound, the T/C (endpoint: mean survival time, dose: 200.0 mg/kg/injection, schedule: Q01DX009 (ip), vehicle: Klucel (hydroxypropylcellulose) (HPC)) was 95 % of control, the T/C (endpoint: mean survival time, dose: 200.0 mg/kg/injection, schedule: Q04DX003 (ip), vehicle: Klucel (hydroxypropylcellulose) (HPC)) was 112 % of control and the T/C (endpoint: mean survival time, dose: 400.0 mg/kg/injection, schedule: Q04DX003 (ip), vehicle: Klucel (hydroxypropylcellulose) (HPC)) was 104 % of control.

In the case of `COC(=O)C1C2CC(=O)C(C2)C1C(=O)OC` (stereo not given), the T/C [2] is reported as 93 % of control, the T/C [3] is reported as 99 % of control and the T/C [4] is reported as 93 % of control.

For `C#CCOCCC(C(C)=O)C(=O)OCC` (stereo not given), the T/C (endpoint: mean survival time, dose: 100.0 mg/kg/injection, schedule: Q01DX001 (ip), vehicle: saline) was 104 % of control and the T/C (endpoint: mean survival time, dose: 200.0 mg/kg/injection, schedule: Q01DX001 (ip), vehicle: saline) was 100 % of control.

For `CCC1(c2ccccc2)C(=O)N(CBr)C(=O)N(CBr)C1=O`, the T/C (endpoint: mean survival time, dose: 12.5 mg/kg/injection, schedule: Q01DX009 (ip), vehicle: saline with Tween-80) was 98 % of control, the T/C (endpoint: mean survival time, dose: 25.0 mg/kg/injection, schedule: Q01DX009 (ip), vehicle: saline with Tween-80) was 93 % of control and the T/C (endpoint: mean survival time, dose: 50.0 mg/kg/injection, schedule: Q01DX009 (ip), vehicle: saline with Tween-80) was 96 % of control.

With `O=C(CCOP(=O)(NCCCl)NCCCl)c1ccccc1` the T/C (endpoint: median survival time, dose: 62.5 mg/kg/injection, schedule: Q01DX001 (ip), vehicle: saline with Tween-80) was 117 % of control, the T/C (endpoint: median survival time, dose: 125.0 mg/kg/injection, schedule: Q01DX001 (ip), vehicle: saline with Tween-80) was 166 % of control and the T/C (endpoint: median survival time, dose: 250.0 mg/kg/injection, schedule: Q01DX001 (ip), vehicle: saline with Tween-80) was 165 % of control and 229 % of control. The T/C (endpoint: median survival time, dose: 500.0 mg/kg/injection, schedule: Q01DX001 (ip), vehicle: saline with Tween-80) was 291 % of control.
